# From patent US20170087113A1, “METHODS FOR TREATING UREA CYCLE DISORDERS TO PREVENT HYPERAMMONEMIC CRISES BY CONTROLLING BLOOD AMMONIA LEVELS” (HORIZON THERAPEUTICS, LLC, priority 2014, published 2017)
# Key:
# UCD patients [1] = experiment: Occurrence of hyperammonemic crises (HAC): 12 months pre-enrollment on NaPBA versus 12-month GPB treatment (studies HPN-100-005, -007, -012); type: in vivo, human; settings: for # of HA events (total no. of HAC): 12 months pre-study (NaPBA) or during study (GPB); for # of HACs / Subjects with 1 or more HACs: subjects ages 6 years or higher, total N=77, pre-study (NaPBA) or study (GPB)
# Text: Data from four short-term switchover (SO) studies and three 12-month safety extension (SE) studies in adult and pediatric UCD patients were included in the analyses; all have been previously described. […] Most patients completing these protocols plus additional patients (a total of 100 of whom 49 were pediatric) were enrolled into safety extension studies and received GPB for 12 months (Diaz 2013), (Mokhatarani 2013), (Berry 2014).
# All protocols and informed consents were reviewed and approved by the Investigational Review Board of each participating institution prior to initiation. […] In all studies, patients received GPB three times daily (or more frequently in small children to match their prior NaPBA schedule) at a daily dose equivalent to their previously prescribed NaPBA dose. […] Fasting ammonia and glutamine levels were analyzed as a predictor of HACs during long-term treatment.
# (§1) During the 12 month studies, blood samples for ammonia and glutamine analyses were collected monthly and information on HACs was recorded. […] Ammonia and glutamine concentrations were measured by an accredited hospital laboratory at each study site and ammonia values were normalized to a standard range of 9 to 35 μmol/L.
# Data for 100 UCD subjects from three clinical trials (HPN-100-005, HPN-100-007, and HPN-100-012) were analyzed to evaluate the correlation between fasting ammonia levels and HAC (Table 1). Patients were treated for 12 months with GPB during the study. There was an almost equal split in the number of subjects who were adults (51%) and children (49%), defined as age<18 years at the time of enrollment. In this population, 30 patients had experienced a total of 54 HACs in the 12 months prior to the study and 19 patients experienced a total of 27 HACs during the study (Table 1). Baseline ammonia was defined as the subject's fasting ammonia level taken either at month zero or at the screening visit depending on which study the subject was enrolled in and whether the subject was enrolled in previous studies.
# venous ammonia = settings: study HPN-100-006 (Diaz 2013); cited from earlier work
# glutamine = experiment: Glutamine levels and exposure during 12-month GPB treatment; type: in vivo, human
# Experimental: as §1
# The relationship between glutamine levels and ammonia categories was also analyzed. […] Glutamine levels were analyzed over the 12 month study period in patients treated for 12 months with GPB. Monthly glutamine levels were generally higher in patients in the higher baseline ammonia ULN groups and, by three months of treatment, had decreased in the patients with the highest baseline glutamine at baseline (FIG. 14A).
# blood ammonia = experiment: Total ammonia exposure (TNAUC of monthly ammonia) during 12-month GPB treatment; type: in vivo, human; parameters: TNAUC ammonia, mean: unit not given beside the values; settings: for TNAUC ammonia, mean: patients with HAC, N=19; for TNAUC ammonia, mean (SD): patients with no HAC, N=81
# Experimental: as §1
# The relationship between total ammonia exposure over time and the risk of HAC occurrence was explored by calculating time normalized area under the curve (TNAUC12months) for ammonia for patients with and without an HAC during the 12-month treatment with GPB (Table 13). The AUC for ammonia, measured monthly, was calculated for each patient using the trapezoid rule over the course of the 12 month study. To normalize the AUC, TNAUCxmonth, AUC was divided by the final study month of an ammonia assessment.
# UCD patients [2] = experiment: Duration of HAC during the 12-month GPB studies; type: in vivo, human
# Experimental: The relationship between ammonia exposure and duration of HAC was analyzed. Ammonia exposure was characterized three different ways: peak ammonia during crisis, total ammonia during crisis and ammonia at time of admission. The majority of the HACs typically lasted a day, and a steep drop off in the distribution was seen after 2 days. (Note: two subjects were excluded with 20 days of duration of HAC in this analyses).
# [3] = all patients N=100, pre-study (NaPBA) or during study (GPB)
# [4] = study 005, N=17, pre-study (NaPBA) or during study (GPB)
# [5] = study 007, N=60, pre-study (NaPBA) or during study (GPB)
# [6] = study 012, N=23, pre-study (NaPBA) or during study (GPB)
molecule,measurement,setting,value
sodium phenylbutyrate [NaPBA],12-month incidence of HAC,UCD patients [1]; adult (≧18 years),0.832
same,Proportion of patients who experienced an HAC,UCD patients [1]; adult (≧18 years),17.7%
same,# of HA events (total no. of HAC),UCD patients [1]; all patients N=100,54
same,N with ≧1 HA events (number of patients with HAC),UCD patients [1]; [3],30
same,Proportion of patients who experienced an HAC,UCD patients [1]; [3],30.0%
same,12-month incidence of HAC,UCD patients [1]; female,0.712
same,Proportion of patients who experienced an HAC,UCD patients [1]; female,23.9%
same,12-month incidence of HAC,UCD patients [1]; male,0.516
same,Proportion of patients who experienced an HAC,UCD patients [1]; male,42.4%
same,12-month incidence of HAC,UCD patients [1]; non-white,0.660
same,Proportion of patients who experienced an HAC,UCD patients [1]; non-white,36.8%
same,12-month incidence of HAC,UCD patients [1]; pediatric (<18 years),0.338
same,Proportion of patients who experienced an HAC,UCD patients [1]; pediatric (<18 years),42.9%
same,# of HA events,UCD patients [1]; [4],8
same,N with ≧1 HA events,UCD patients [1]; [4],5
same,# of HA events,UCD patients [1]; [5],17
same,N with ≧1 HA events,UCD patients [1]; [5],10
same,# of HA events,UCD patients [1]; [6],29
same,N with ≧1 HA events,UCD patients [1]; [6],15
same,# of HACs,UCD patients [1],25
same,Subjects with 1 or more HACs,UCD patients [1],15
same,12-month incidence of HAC,UCD patients [1]; white,0.564
same,Proportion of patients who experienced an HAC,UCD patients [1]; white,28.4%
"O=C(CCCc1ccccc1)OCC(COC(=O)CCCc1ccccc1)OC(=O)CCCc1ccccc1 [GPB, glycerol phenylbutyrate]",Lower HAC incidence rate during study (GPB) than pre-enrollment,UCD patients [1]; 0.288 versus […],roughly 50%
same,Proportion of patients who experienced an HAC,"UCD patients [1]; Group 1 study sites (33 patients, >50% with baseline ammonia <0.5 ULN)",12%
same,Proportion of patients who experienced an HAC,UCD patients [1]; Group 2 study sites (29 patients),21%
same,Proportion of patients who experienced an HAC,UCD patients [1]; Group 3 study sites (38 patients),24%
same,# HAC,UCD patients [1]; Month 0-3 of GPB treatment,5
same,% of Total HAC,UCD patients [1]; Month 0-3 of GPB treatment,(18.5%)
same,HAC Incidence Rate/month,UCD patients [1]; Month 0-3 of GPB treatment,0.0170
same,# HAC,UCD patients [1]; Month 0-6 of GPB treatment,13
same,% of Total HAC,UCD patients [1]; Month 0-6 of GPB treatment,(48.1%)
same,HAC Incidence Rate/month,UCD patients [1]; Month 0-6 of GPB treatment,0.0224
same,# HAC,UCD patients [1]; Month 0-9 of GPB treatment,20
same,% of Total HAC,UCD patients [1]; Month 0-9 of GPB treatment,(74.1%)
same,HAC Incidence Rate/month,UCD patients [1]; Month 0-9 of GPB treatment,0.0234
same,# HAC,UCD patients [1]; Month 0-12 of GPB treatment,27
same,% of Total HAC,UCD patients [1]; Month 0-12 of GPB treatment,(100%)
same,HAC Incidence Rate/month,UCD patients [1]; Month 0-12 of GPB treatment,0.0240
same,Proportion of patients who experienced an HAC during the study,UCD patients [1]; OTC deficiency (n=69),18.8%
same,12-month incidence of HAC,UCD patients [1]; adult (≧18 years),0.371
same,Proportion of patients who experienced an HAC,UCD patients [1]; adult (≧18 years),13.7%
same,Proportion of patients with no HAC,"UCD patients [1]; adult ≧18 years, during study",86.3%
same,"Subjects who had not experienced an HAC (Kaplan-Meier, HAC-free survival)",UCD patients [1]; after about one year of follow-up during treatment with GPB,80%
same,Proportion of patients who experienced an HAC,"UCD patients [1]; age 6-11 years, during study",23.5%
same,Proportion of patients with no HAC,"UCD patients [1]; age 6-11 years, during study",76.5%
same,Proportion of patients who experienced an HAC,"UCD patients [1]; age 12-17 years, during study",11.1%
same,Proportion of patients with no HAC,"UCD patients [1]; age 12-17 years, during study",88.9%
same,Proportion of patients who experienced an HAC,"UCD patients [1]; age <6 years, during study",30.4%
same,Proportion of patients with no HAC,"UCD patients [1]; age <6 years, during study",69.6%
same,# of HA events (total no. of HAC),UCD patients [1]; all patients N=100,27
same,N with ≧1 HA events (number of patients with HAC),UCD patients [1]; [3],19
same,Proportion of patients who experienced an HAC,UCD patients [1]; [3],19.0%
same,Proportion of patients with no HAC,"UCD patients [1]; all patients, during study",81.0%
same,Proportion of patients with no HAC,"UCD patients [1]; baseline ammonia 0-<0.5 ULN, during study",89.7%
same,Proportion of patients with no HAC,"UCD patients [1]; baseline ammonia 0.5-<1.0 ULN, during study",85.3%
same,Proportion of patients with no HAC,"UCD patients [1]; baseline ammonia ≧1 ULN, during study",63.0%
same,12-month incidence of HAC,UCD patients [1]; female,0.314
same,Proportion of patients who experienced an HAC,UCD patients [1]; female,16.4%
same,Proportion of patients with no HAC,"UCD patients [1]; female, during study",83.6%
same,12-month incidence of HAC,UCD patients [1]; male,0.275
same,Proportion of patients who experienced an HAC,UCD patients [1]; male,24.2%
same,Proportion of patients with no HAC,"UCD patients [1]; male, during study",75.8%
same,Proportion of patients who experienced an HAC during the study,UCD patients [1]; non-OTC deficiencies,19.4%
same,12-month incidence of HAC,UCD patients [1]; non-white,0.248
same,Proportion of patients who experienced an HAC,UCD patients [1]; non-white,21.1%
same,Proportion of patients with no HAC,"UCD patients [1]; non-white, during study",78.9%
same,12-month incidence of HAC,UCD patients [1]; pediatric (<18 years),0.209
same,Proportion of patients who experienced an HAC,UCD patients [1]; pediatric (<18 years),24.5%
same,Proportion of patients with no HAC,"UCD patients [1]; pediatric <18 years, during study",75.5%
same,# of HA events,UCD patients [1]; [4],3
same,N with ≧1 HA events,UCD patients [1]; [4],3
same,# of HA events,UCD patients [1]; [5],12
same,N with ≧1 HA events,UCD patients [1]; [5],9
same,# of HA events,UCD patients [1]; [6],12
same,N with ≧1 HA events,UCD patients [1]; [6],7
same,# of HACs,UCD patients [1],15
same,Subjects with 1 or more HACs,UCD patients [1],12
same,12-month incidence of HAC,UCD patients [1]; white,0.296
same,Proportion of patients who experienced an HAC,UCD patients [1]; white,18.5%
same,Proportion of patients with no HAC,"UCD patients [1]; white, during study",81.5%
same,Ammonia control of GPB versus NaPBA as assessed by venous ammonia,venous ammonia,non-inferiority
same,Change of glutamine levels during GPB treatment,"glutamine; patients with the highest baseline glutamine, by three months of treatment",decreased
same,"Total glutamine exposure, TNAUC12month",glutamine; subjects with an HAC during the study,720.9 μmol/L*m
same,"Total glutamine exposure, TNAUC12month",glutamine; subjects without an HAC during the study,699.4 μmol/L*m
same,"TNAUC ammonia, mean",blood ammonia; Month 0-3,33.3
same,"TNAUC ammonia, mean (SD)",blood ammonia; Month 0-3,23.5 (13.62)
same,"TNAUC ammonia, mean",blood ammonia; Month 0-6,33.0
same,"TNAUC ammonia, mean (SD)",blood ammonia; Month 0-6,24.0 (13.85)
same,"TNAUC ammonia, mean",blood ammonia; Month 0-9,33.4
same,"TNAUC ammonia, mean (SD)",blood ammonia; Month 0-9,23.7 (12.56)
same,"TNAUC ammonia, mean",blood ammonia; Month 0-12,35.0
same,"TNAUC ammonia, mean (SD)",blood ammonia; Month 0-12,23.6 (11.94)
same,Duration of HAC that lasted less than 2 days,UCD patients [2]; overall,about 64%
same,Duration of HA crisis 1-1.99 days,UCD patients [2]; study 005,0.0%
same,Duration of HA crisis 2-2.99 days,UCD patients [2]; study 005,50.0%
same,Duration of HA crisis <1 days,UCD patients [2]; study 005,50.0%
same,Duration of HA crisis >3 days,UCD patients [2]; study 005,0.0%
same,"Duration of HA crisis, median",UCD patients [2]; study 005,1.27 days
same,"Duration of HA crisis, mean","UCD patients [2]; study 005, N=2",1.27 days
same,Duration of HA crisis 1-1.99 days,UCD patients [2]; study 007,16.7%
same,Duration of HA crisis 2-2.99 days,UCD patients [2]; study 007,33.3%
same,Duration of HA crisis <1 days,UCD patients [2]; study 007,41.7%
same,Duration of HA crisis >3 days,UCD patients [2]; study 007,8.3%
same,"Duration of HA crisis, median",UCD patients [2]; study 007,1.36 days
same,"Duration of HA crisis, mean","UCD patients [2]; study 007, N=12",1.95 days
same,Duration of HA crisis 1-1.99 days,UCD patients [2]; study 012,18.2%
same,Duration of HA crisis 2-2.99 days,UCD patients [2]; study 012,18.2%
same,Duration of HA crisis <1 days,UCD patients [2]; study 012,54.6%
same,Duration of HA crisis >3 days,UCD patients [2]; study 012,9.1%
same,"Duration of HA crisis, median",UCD patients [2]; study 012,0.92 days
same,"Duration of HA crisis, mean","UCD patients [2]; study 012, N=11",1.53 days
same,Duration of HA crisis 1-1.99 days,"UCD patients [2]; total, N=25",16.0%
same,Duration of HA crisis 2-2.99 days,"UCD patients [2]; total, N=25",28.0%
same,Duration of HA crisis >3 days,"UCD patients [2]; total, N=25",8.0%
same,"Duration of HA crisis, mean","UCD patients [2]; total, N=25",1.71 days
same,"Duration of HA crisis, median","UCD patients [2]; total, N=25",1.00 days
